Test results from patent US9113629B2, “4-amino-6-(4-substituted-phenyl)-picolinates and 6-amino-2-(4-substituted-phenyl)-pyrimidine-4-carboxylates and their use as herbicides” (DOW AGROSCIENCES LLC, priority 2013, dated 2015).
Where two headings read alike, the source gives them in different places.

How the values were obtained:
[1] = tested on: Key Grass and Sedge Weeds as well as Grass Crops; experiment: Post-emergent Test II herbicidal activity (Table 6); type: in vivo; settings: post-emergence, 336 h; for pest or weed control at 70 g/ha: 70 g ai/ha; for pest or weed control at 140 g/ha: 140 g ai/ha
How it was run: (§1)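 Visual injury ratings (0 = no injury, 100 = complete kill) were taken 14 d after treatment, relative to untreated plants. Seedlings at the first–second true leaf stage received overhead spray at 187 L/ha; the highest rate was serially diluted to ½×, ¼×, ⅛× and 1/16×.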

[2] = tested on: Key Broadleaf Weed and Crop Species; experiment: Post-emergent Test II herbicidal activity (Table 5); type: in vivo; settings: post-emergence, 336 h, 14 days after application; for pest or weed control at 70 g/ha: application rate 70 g ai/ha; for pest or weed control at 140 g/ha: application rate 140 g ai/ha
How it was run: as §1

[3] = CYPES: yellow nutsedge (Cyperus esculentus), read-out: Visual Growth Reduction (%) 14 Days After Application, CYPES
[4] = DIGSA: crabgrass (Digitaria sanguinalis), read-out: Visual Growth Reduction (%) 14 Days After Application, DIGSA
[5] = ECHCG: barnyardgrass (Echinochloa crus-galli), read-out: Visual Growth Reduction (%) 14 Days After Application, ECHCG
[6] = ORYSA: rice (Oryza sativa), crop, read-out: Visual Growth Reduction (%) 14 Days After Application, ORYSA
[7] = SETFA: giant foxtail (Setaria faberi), read-out: Visual Growth Reduction (%) 14 Days After Application, SETFA
[8] = SORVU: grain sorghum (Sorghum vulgare), read-out: Visual Growth Reduction (%) 14 Days After Application, SORVU
[9] = TRZSS (wheat, Triticum aestivum), crop, read-out: Visual Growth Reduction (%) 14 Days After Application, TRZSS
[10] = ZEAMX: maize, corn (Zea mays), crop, read-out: Visual Growth Reduction (%) 14 Days After Application, ZEAMX
[11] = ABUTH: velvetleaf (Abutilon theophrasti), read-out: Visual Growth Reduction (%) 14 Days After Application, ABUTH
[12] = AMARE: redroot pigweed (Amaranthus retroflexus), read-out: Visual Growth Reduction (%) 14 Days After Application, AMARE
[13] = BRSNN: oilseed-rape, canola (Brassica napus), read-out: Visual Growth Reduction (%) 14 Days After Application, BRSNN
[14] = CHEAL: lambsquarters (Chenopodium album), read-out: Visual Growth Reduction (%) 14 Days After Application, CHEAL
[15] = EPHHL: wild poinsettia (Euphorbia heterophylla), read-out: Visual Growth Reduction (%) 14 Days After Application, EPHHL
[16] = HELAN: sunflower (Helianthus annuus), read-out: Visual Growth Reduction (%) 14 Days After Application, HELAN
[17] = VIOTR: wild pansy (Viola tricolor), read-out: Visual Growth Reduction (%) 14 Days After Application, VIOTR

| Compound | melting point [°C] | pest or weed control at 70 g/ha [1, 3] [%] | pest or weed control at 140 g/ha [1, 3] [%] | pest or weed control at 70 g/ha [1, 4] [%] | pest or weed control at 140 g/ha [1, 4] [%] | pest or weed control at 70 g/ha [1, 5] [%] | pest or weed control at 140 g/ha [1, 5] [%] | pest or weed control at 70 g/ha [1, 6] [%] | pest or weed control at 140 g/ha [1, 6] [%] | pest or weed control at 140 g/ha [1, 7] [%] | pest or weed control at 70 g/ha [1, 8] [%] | pest or weed control at 140 g/ha [1, 8] [%] | pest or weed control at 70 g/ha [1, 9] [%] | pest or weed control at 140 g/ha [1, 9] [%] | pest or weed control at 70 g/ha [1, 10] [%] | pest or weed control at 140 g/ha [1, 10] [%] | pest or weed control at 70 g/ha [2, 11] [%] | pest or weed control at 140 g/ha [2, 11] [%] | pest or weed control at 70 g/ha [2, 12] [%] | pest or weed control at 140 g/ha [2, 12] [%] | other results |
| --- | --- | --- | --- | --- | --- | --- | --- | --- | --- | --- | --- | --- | --- | --- | --- | --- | --- | --- | --- | --- | --- |
| C#Cc1ccc(-c2nc(C(=O)OC)c(Cl)c(N)c2F)c(F)c1F [Compound 22] | 190 to 192 | 0 to 29 | 0 to 29 | 0 to 29 | 0 to 29 | 0 to 29 | 45 to 59 | 0 to 29 | 0 to 29 | 0 to 29 | 0 to 29 | 0 to 29 | 0 to 29 | 0 to 29 | 0 to 29 | 45 to 59 | 0 to 29 | 0 to 29 | 0 to 29 | 0 to 29 | pest or weed control at 70 g/ha [1, 7]: 0 to 29%; pest or weed control at 70 g/ha [2, 13]: 0 to 29%; pest or weed control at 140 g/ha [2, 13]: 60 to 74%; pest or weed control at 70 g/ha [2, 14]: 45 to 59%; pest or weed control at 140 g/ha [2, 14]: 75 to 84%; pest or weed control at 70 g/ha [2, 15]: 0 to 29%; pest or weed control at 140 g/ha [2, 15]: 95 to 100%; pest or weed control at 70 g/ha [2, 16]: 45 to 59%; pest or weed control at 140 g/ha [2, 16]: 75 to 84%; pest or weed control at 70 g/ha [2, 17]: 0 to 29%; pest or weed control at 140 g/ha [2, 17]: 0 to 29% |
| COC(=O)c1nc(-c2ccc(Br)c(F)c2F)nc(N)c1OC [Compound 122, methyl 6-amino-2-(4-bromo-2,3-difluorophenyl)-5-methoxypyrimidine-4-carboxylate] | 171 to 172 | 95 to 100 | 95 to 100 | 45 to 59 | 45 to 59 | 85 to 94 | 95 to 100 | 0 to 29 | 0 to 29 | 95 to 100 | 95 to 100 | 85 to 94 | 45 to 59 | 45 to 59 | 95 to 100 | 95 to 100 | 95 to 100 | 95 to 100 | 95 to 100 | 95 to 100 | pest or weed control at 70 g/ha [2, 13]: 95 to 100%; pest or weed control at 140 g/ha [2, 13]: 95 to 100%; pest or weed control at 70 g/ha [2, 14]: 95 to 100%; pest or weed control at 140 g/ha [2, 14]: 95 to 100%; pest or weed control at 70 g/ha [2, 15]: 95 to 100%; pest or weed control at 140 g/ha [2, 15]: 95 to 100%; pest or weed control at 70 g/ha [2, 16]: 85 to 94%; pest or weed control at 140 g/ha [2, 16]: 95 to 100%; pest or weed control at 70 g/ha [2, 17]: 95 to 100%; pest or weed control at 140 g/ha [2, 17]: 85 to 94% |
